“Also recorded” adds a separate entry of the source. Marks after values point to notes of the source that are not given here.
Tests used:
phospholipase A2 (PLA2) = test: Assay for inhibition against PLA2; assay type: biochemical; details: PLA2 enzyme 5 μg/mL, pH 8.2, 40 °C, 30 min, OD 495 nm; three repeats
Method: As a regulator associated with the stability of the liver cell membrane, phospholipase A2 (PLA2) is a promising target for hepatoprotective drug development.
The PLA2 inhibitory assays of compounds 1–11 and the positive drug diethylenetriaminepentaacetic acid (Purchased from Aladdin, Los Angeles, CA, USA, purity > 98.0%) were carried out according to the literature. First of all, each tube was added with 1 mL fresh substrate buffer solution (pH = 8.2). After that, 50 μL tested compounds at various concentrations were placed at reaction tube and blank tube, respectively. As for control tube, 50 μL deionized water was instead. Then each tube incubated at 40 °C for 10 minutes. The reaction tube and blank tube were followed by the treatment with PLA2 enzyme (5 μL) at the concentration of 5 μg/mL. Before put them into the incubator at the temperature of 40 °C to react 30 minutes, the content of the tube should be fully blending. The optical density value of each tube was then read in an ELISA plate reader using a wavelength of 495 nm. The IC50 values were calculated from concentration-response curves by means of the GraphPad Prism 5.0 Software (San Diego, CA, USA). Each experiment was repeated three times to get the mean values.

[1] = test system: primary rat hepatocytes injured by D-GalN; test: Hepatoprotective activity in primary rat hepatocytes injured by D-GalN (AST, LDH levels); assay type: cell-based; details: for hepatoprotective activity (result in words): primary rat hepatocytes injured by D-GalN, compared to model group or between compounds; for AST / LDH: primary rat hepatocytes, 2 mM D-GalN, mean ± SD, n = 3; for AST: model 17.1 ± 2.4, control 6.9 ± 1.7; for LDH: model 253.5 ± 13.5, control 157.4 ± 11.7
Method: All the separated compounds were assessed for their hepatoprotective activities against the increase of AST and LDH levels in primary rat hepatocytes injured by D-GalN. The maximum nontoxic concentrations of tested compounds on primary rat hepatocytes were in the range of 120–240 μM. […] (Table 2).
Isolated rat hepatocytes were prepared from male Wistar rats by a collagenase perfusion technique as described previously. The D-GalN concentration used for cell culture treatment was previously determined according to a modification of the method of Morikawa et al.. The cultured cells in logarithmic growth phase were made into a single-cell suspension and seeded in 96-well plates (1 × 10^4 cells/well) in the DMEM/F 12 with 2% FBS complete medium for 24 h at 37 °C. Then, the hepatocytes were exposed to 2 mM D-GalN for 2 h to induce hepatotoxocity. The medium with silibin meglumine (as positive drug, purity 95.6%, Hunan Xieli Pharmaceutical Co., Ltd., Zhuzhou, China) and different concentrations of test compounds was mixed in cell medium (final test compounds concentration were 30 μM, 60 μM and 120 μM, respectively), and incubated for 24 h. The obtained reacted supernatant was directly used to detect ALT and AST levels. The control group was a set of cells maintained in culture medium, while the model group was a set of cells maintained in culture medium and treated only with D-GalN. All data are expressed as the mean ± SD of at least three independent experiments as indicated. The test for the paired samples was used to determine statistical difference between parameters. These differences were considered significant for p < 0.05 or 0.01.

Compound | IC50 (phospholipase A2 (PLA2)) | hepatoprotective activity (result in words) [1] | AST ([1]; 30 μM compound) | LDH ([1]; 30 μM compound) | AST ([1]; 60 μM compound) | LDH ([1]; 60 μM compound) | AST ([1]; 120 μM compound) | LDH ([1]; 120 μM compound) | AST ([1]; 50 μM (positive drug)) | LDH ([1]; 50 μM (positive drug))
CC12CC(OC1=O)C1(C)CCC3(C)C(=CC(=O)C4C5(C)CCC(OC6OC(C(=O)O)C(O)C(O)C6OC6OC(C(=O)O)C(O)C(O)C6O)C(C)(CO)C5CCC43C)C1C2 (stereo not drawn) [Compound 8, 24-hydroxylicorice-saponin E2] | > 50 µM | – | – | – | – | – | – | – | – | –
CC12CC(OC1=O)C1(C)CCC3(C)C(=CC(=O)C4C5(C)CCC(OC6OC(C(=O)O)C(O)C(O)C6OC6OC(C(=O)O)C(O)C(O)C6O)C(C)(C)C5CCC43C)C1C2 (stereo not drawn) [Compound 5, licorice-saponin E2] | > 50 µM | significantly weaker hepatoprotective activities than the compound 2 and 11 | – | – | – | – | – | – | – | –
CC1(C(=O)O)CCC2(C)CCC3(C)C(=CC(=O)C4C5(C)CCC(OC6OC(C(=O)O)C(O)C(O)C6OC6OC(C(=O)O)C(O)C(O)C6O)C(C)(CO)C5CCC43C)C2C1 [Compound 3, 3β-O-[β-D-glucuronpyranosyl-(1→2)-β-D-glucuron-pyranosyl]-24-hydroxy-18α-glycyrrhetic acid] | 3.6 ± 0.3 µM | notably lowered AST; also recorded: higher activity than compound 4; also recorded: significant hepatoprotective activities | 13.3 ± 2.9 ^c U·L^−1 | 224.6 ± 21.4 ^c U·L^−1 | 12.9 ± 3.2 ^d U·L^−1 | 208.6 ± 16.0 ^d U·L^−1 | 10.8 ± 2.8 ^d U·L^−1 | 200.7 ± 15.1 ^d U·L^−1 | – | –
CC12CCC(CO)(C(=O)O)CC1C1=CC(=O)C3C4(C)CCC(OC5OC(C(=O)O)C(O)C(O)C5OC5OC(C(=O)O)C(O)C(O)C5O)C(C)(C)C4CCC3(C)C1(C)CC2 [Compound 1, 3β-O-[β-D-glucuronopyranosyl-(1→2)-β-D-glucuronopyranosyl]-29-hydroxyglycyrrhetic acid] | > 50 µM | – | – | – | – | – | – | – | – | –
CC(=O)OC1CC(C)(C(=O)O)CC2C3=CC(=O)C4C5(C)CCC(OC6OC(C(=O)O)C(O)C(O)C6OC6OC(C(=O)O)C(O)C(O)C6O)C(C)(C)C5CCC4(C)C3(C)CCC12C (stereo not drawn) [Compound 6, 22β-acetoxyglycyrrhizin] | 27.1 ± 0.9 µM | notably lowered AST; also recorded: significant hepatoprotective activities | 16.5 ± 2.2 U·L^−1 | 242.8 ± 15.2 U·L^−1 | 14.6 ± 3.0 U·L^−1 | 228.7 ± 14.0 ^c U·L^−1 | 13.2 ± 2.7 ^c U·L^−1 | 221.7 ± 19.5 ^d U·L^−1 | – | –
CC1(C)[C@@H](O[C@H]2O[C@H](C(=O)O)[C@@H](O)[C@H](O)[C@H]2O[C@@H]2O[C@H](C(=O)O)[C@@H](O)[C@H](O)[C@H]2O)CC[C@]2(C)[C@H]3C(=O)C=C4[C@@H]5C[C@@](C)(C(=O)O)CC[C@]5(C)CC[C@@]4(C)[C@]3(C)CC[C@@H]12 [Compound 11, glycyrrhizin] | 9.3 ± 0.8 µM | notably lowered AST; also recorded: stronger activity than 1; also recorded: significant hepatoprotective activities | 14.1 ± 2.1 ^c U·L^−1 | 236.3 ± 9.4 ^c U·L^−1 | 13.0 ± 2.2 ^c U·L^−1 | 219.1 ± 19.3 ^d U·L^−1 | 11.6 ± 1.8 ^d U·L^−1 | 207.8 ± 21.9 ^d U·L^−1 | – | –
CC1(C(=O)OC2OC(CO)C(O)C(O)C2O)CCC2(C)CCC3(C)C(=CC(=O)C4C5(C)CCC(OC6OC(C(=O)O)C(O)C(O)C6OC6OC(C(=O)O)C(O)C(O)C6O)C(C)(CO)C5CCC43C)C2C1 (stereo not drawn) [Compound 10, licorice-saponin A3] | > 50 µM | – | – | – | – | – | – | – | – | –
CC1(C(=O)O)CCC2(C)CCC3(C)C(=CC(=O)C4C5(C)CCC(OC6OC(C(=O)O)C(O)C(O)C6OC6OC(C(=O)O)C(O)C(O)C6O)C(C)(CO)C5CCC43C)C2C1 (stereo not drawn) [Compound 4, licorice-saponin G2] | 16.9 ± 0.3 µM | notably lowered AST; also recorded: significant hepatoprotective activities | 14.8 ± 2.9 U·L^−1 | 237.2 ± 16.4 U·L^−1 | 13.7 ± 2.6 ^c U·L^−1 | 232.7 ± 25.7 U·L^−1 | 12.6 ± 2.8 ^c U·L^−1 | 224.9 ± 25.2 ^c U·L^−1 | – | –
CC12CCC3(C)C(=CC(=O)C4C5(C)CCC(OC6OC(C(=O)O)C(O)C(O)C6OC6OC(C(=O)O)C(O)C(O)C6O)C(C)(C)C5CCC43C)C1CC(C)(C(=O)O)C(O)C2 (stereo not drawn) [Compound 2, macedonoside A] | 6.9 ± 0.5 µM | notably lowered AST; also recorded: significant hepatoprotective activities | 14.6 ± 3.1 U·L^−1 | 231.0 ± 18.3 ^c U·L^−1 | 13.1 ± 2.1 ^c U·L^−1 | 213.7 ± 19.6 ^d U·L^−1 | 11.2 ± 1.9 ^d U·L^−1 | 215.9 ± 8.2 ^d U·L^−1 | – | –
CC(=O)OC1CC(C)(C=O)CC2C3=CC(=O)C4C5(C)CCC(OC6OC(C(=O)O)C(O)C(O)C6OC6OC(C(=O)O)C(O)C(O)C6O)C(C)(C)C5CCC4(C)C3(C)CCC12C (stereo not drawn) [Compound 9, 22β-acetoxyglycyrrhaldehyde] | > 50 µM | – | – | – | – | – | – | – | – | –
CC1(C)C(OC2OC(C(=O)O)C(O)C(O)C2OC2OC(C(=O)O)C(O)C(O)C2O)CCC2(C)C1CCC1(C)C2C(=O)C=C2C3CC4(C(=O)O)CC(OC4=O)C3(C)CCC21C (stereo not drawn) [Compound 7, uralsaponin D] | 32.2 ± 0.5 µM | significantly weaker hepatoprotective activities than the compound 2 and 11 | – | – | – | – | – | – | – | –
O=C(O)CN(CCN(CC(=O)O)CC(=O)O)CCN(CC(=O)O)CC(=O)O [Diethylenetriaminepentaacetic acid, reference compound] | 1.8 ± 0.1 µM | – | – | – | – | – | – | – | – | –
CNCC(O)C(O)C(O)C(O)CO.COc1cc(C2Oc3cc(C4Oc5cc(O)cc(O)c5C(=O)C4O)ccc3OC2CO)ccc1O (stereo not drawn) [Silibinin Meglumine, reference compound] | – | – | – | – | – | – | – | – | 10.3 ± 2.2 ^d U·L^−1 | 219.1 ± 10.9 ^d U·L^−1
